The species named for the assay is Homo sapiens. The assay is described as follows: Potency relative to fluocinolone 16,17-acetonide in the human vasoconstictor test. In kind it is functional.
`CCOC(=O)[C@@]1(OC(=O)CC)[C@@H](C)CC2C3CCC4=CC(=O)C=CC4(C)[C@@]3(F)[C@@H](O)CC21C` (some centres not stated) registered a Potency of 75. Regarding `C[C@@H]1CC2C3CCC4=CC(=O)C=CC4(C)[C@@]3(F)C(O)CC2(C)[C@@]1(O)C(=O)COP(=O)(O)O` (some centres not stated), the Potency is recorded as 2. For the molecule `CCC(=O)O[C@]1(C(=O)CO)[C@@H](C)C[C@H]2[C@@H]3CCC4=CC(=O)C=C[C@]4(C)[C@@]3(Cl)[C@@H](O)C[C@@]21C` [BECLOMETHASONE 17-MONOPROPIONATE], the Potency is 360.

Consider `CCC(=O)O[C@]1(C(=O)CO)[C@@H](C)C[C@H]2[C@@H]3CCC4=CC(=O)C=C[C@]4(C)[C@@]3(F)[C@@H](O)C[C@@]21C`, for which the Potency is 190. For `CC(=O)[C@H]1CC[C@H]2[C@@H]3C[C@H](C)C4=CC(=O)CC[C@]4(C)[C@H]3[C@@H](O)C[C@]12C` [MEDRYSONE] the value was less than 1. For `C[C@]12C=CC(=O)C=C1CC[C@@H]1[C@@H]2[C@@H](O)C[C@@]2(C)[C@H]1CC[C@]2(O)C(=O)COP(=O)(O)O` [PREDNISOLONE PHOSPHORIC ACID] the value was 0.1; for `CC(=O)OCC(=O)[C@@]12OC(C)(C)O[C@@H]1C[C@H]1[C@@H]3C[C@H](F)C4=CC(=O)C=C[C@]4(C)[C@@]3(F)[C@@H](O)C[C@@]12C` [FLUOCINONIDE], 300. `CCCC(=O)O[C@]1(C(=O)COC(C)=O)CC[C@H]2[C@@H]3C[C@H](F)C4=CC(=O)C=C[C@]4(C)[C@@]3(F)[C@@H](O)C[C@@]21C` [DIFLUPREDNATE] registered a Potency of 1170. Molecule `CC(=O)OCC(=O)[C@@]1(OC(C)=O)CCC2C3C[C@H](F)C4=CC(=O)C=CC4(C)[C@@]3(F)C(O)CC21C` (some centres not stated) came in with a Potency of 360.

In turn, `CCC(=O)O[C@]1(C(=O)OCCl)[C@@H](C)CC2C3CCC4=CC(=O)C=CC4(C)[C@@]3(F)[C@@H](O)CC21C` (some centres not stated) had a Potency of 400. Molecule `CC(C)C(=O)OCC(=O)[C@@]1(O)C(C)CC2C3CCC4=CC(=O)C=CC4(C)[C@@]3(F)C(O)CC21C` (some centres not stated) registered a Potency of 90. `CCCCC(=O)O[C@]1(C(=O)COC(C)=O)CCC2C3C[C@H](F)C4=CC(=O)C=CC4(C)[C@@]3(F)C(O)CC21C` (some centres not stated) had a Potency of 720. With `CCCCC(=O)O[C@]1(C(=O)CO)CCC2C3C[C@H](F)C4=CC(=O)CCC4(C)[C@@]3(F)C(O)CC21C` (some centres not stated), the Potency came out at 360. `CC(=O)OCC(=O)[C@@]1(O)[C@H](C)C[C@H]2[C@@H]3CCC4=CC(=O)C=C[C@]4(C)[C@@]3(F)[C@@H](O)C[C@@]21C` [DEXAMETHASONE ACETATE] displayed a Potency of 8. As to `CCC(=O)O[C@]1(C(=O)CO)CCC2C3C[C@H](F)C4=CC(=O)C=CC4(C)[C@@]3(F)C(O)CC21C` (some centres not stated), the Potency is less than 360. For `CCCC(=O)O[C@]1(C(=O)COC(=O)C(C)C)CCC2C3C[C@H](F)C4=CC(=O)C=CC4(C)[C@@]3(F)C(O)CC21C` (some centres not stated) the value was 1080. Consider `CCCOC(=O)[C@@]1(OC(=O)CC)[C@@H](C)CC2C3CCC4=CC(=O)C=CC4(C)C3(F)[C@@H](O)CC21C` (some centres not stated), for which the Potency is on record as 30. Take `CCCC(=O)O[C@]1(C(=O)CO)CCC2C3C[C@H](F)C4=CC(=O)C=CC4(C)[C@@]3(F)C(O)CC21C` (some centres not stated): the Potency is reported as less than 360. `CC(=O)O[C@]1(C(C)=O)CCC2C3C[C@H](F)C4=CC(=O)C=CC4(C)[C@@]3(F)C(O)CC21C` (some centres not stated) yielded a Potency of 540. In turn, `CCOC(=O)[C@@]1(OC(C)=O)[C@@H](C)CC2C3CCC4=CC(=O)C=CC4(C)C3(F)[C@@H](O)CC21C` (some centres not stated) registered a Potency of 16. `CCCCC(=O)O[C@]1(C(=O)CO)[C@@H](C)C[C@H]2[C@@H]3CCC4=CC(=O)C=C[C@]4(C)[C@@]3(F)[C@@H](O)C[C@@]21C` [BETAMETHASONE VALERATE] had a Potency of 360. With `CCC(=O)O[C@]1(C(=O)COC(C)=O)CCC2C3C[C@H](F)C4=CC(=O)C=CC4(C)[C@@]3(F)C(O)CC21C` (some centres not stated) the figure was 1080; with `CCC(=O)O[C@]1(C(=O)COC(=O)C(C)C)CCC2C3C[C@H](F)C4=CC(=O)C=CC4(C)[C@@]3(F)C(O)CC21C` (some centres not stated), 1080. On to `CC(C)C(=O)OCC(=O)[C@@]1(OC(=O)C(C)C)CCC2C3C[C@H](F)C4=CC(=O)C=CC4(C)[C@@]3(F)C(O)CC21C` (some centres not stated), for which the Potency worked out at 720. Consider `CCCOC(=O)[C@@]1(OC(=O)CCC)[C@@H](C)CC2C3CCC4=CC(=O)C=CC4(C)C3(F)[C@@H](O)CC21C` (some centres not stated), for which the Potency came to 40. Molecule `COC(=O)[C@@]1(OC(C)=O)[C@@H](C)CC2C3CCC4=CC(=O)C=CC4(C)[C@@]3(F)[C@@H](O)CC21C` (some centres not stated) registered a Potency of 385. `CCCCC(=O)O[C@]1(C(=O)CO)CCC2C3C[C@H](F)C4=CC(=O)C=CC4(C)[C@@]3(F)C(O)CC21C` (some centres not stated) returned a Potency of 360. The molecule `CC12C=CC(=O)C=C1[C@@H](F)CC1C3CC[C@](O)(C(=O)CO)C3(C)CC(O)[C@@]12F` (some centres not stated) showed a Potency of less than 360. With `CC(C)C(=O)O[C@]1(C(=O)CO)C(C)CC2C3CCC4=CC(=O)C=CC4(C)[C@@]3(F)C(O)CC21C` (some centres not stated), the Potency stood at 470.

`CC1CC2C3CCC4=CC(=O)C=CC4(C)[C@@]3(Cl)C(O)CC2(C)[C@@]1(O)C(=O)CO` (some centres not stated) yielded a Potency of 0.8. In turn, `CCC(=O)OCC(=O)[C@@]1(OC(=O)CC)CCC2C3C[C@H](F)C4=CC(=O)C=CC4(C)[C@@]3(F)C(O)CC21C` (some centres not stated) came in with a Potency of 853. In turn, `CCCC(=O)OC1(C(=O)CCl)[C@@H](C)CC2C3CCC4=CC(=O)C=C[C@]4(C)[C@@]3(F)[C@@H](O)C[C@@]21C` (some centres not stated) registered a Potency of 1166. The molecule `CCCC(=O)O[C@]1(C(=O)COC(=O)CC)CCC2C3C[C@H](F)C4=CC(=O)C=CC4(C)[C@@]3(F)C(O)CC21C` (some centres not stated) had a Potency of 1058. `CCC(=O)O[C@]1(C(=O)CCl)[C@@H](C)C[C@H]2[C@@H]3CCC4=CC(=O)C=C[C@]4(C)[C@@]3(F)[C@@H](O)C[C@@]21C` [CLOBETASOL PROPIONATE] gave a Potency of 1869. For `CC(=O)O[C@]1(C(=O)CO)CCC2C3C[C@H](F)C4=CC(=O)C=CC4(C)[C@@]3(F)C(O)CC21C` (some centres not stated) the value was less than 360; for `CC(=O)O[C@]1(C(=O)CO)C(C)CC2C3CCC4=CC(=O)C=CC4(C)[C@@]3(F)C(O)CC21C` (some centres not stated), 114.

For `CCC(=O)OCC(=O)[C@@]1(OC(=O)CC)[C@@H](C)C[C@H]2[C@@H]3CCC4=CC(=O)C=C[C@]4(C)[C@@]3(Cl)[C@@H](O)C[C@@]21C` [BECLOMETHASONE DIPROPIONATE], the Potency came to 500. For `CC(=O)OCC(=O)[C@@]1(OC(=O)C(C)C)CCC2C3C[C@H](F)C4=CC(=O)C=CC4(C)[C@@]3(F)C(O)CC21C` (some centres not stated) the value was 720; for `CCCOC(=O)[C@@]1(O)[C@@H](C)CC2C3CCC4=CC(=O)C=CC4(C)C3(F)[C@@H](O)CC21C` (some centres not stated), 5; for `C[C@H]1C[C@H]2C3CCC4=CC(=O)C=C[C@]4(C)[C@@]3(F)[C@@H](O)C[C@]2(C)[C@@]1(O)C(=O)O` (some centres not stated), less than 1.

Molecule `CCC(=O)OCC(=O)[C@@]1(OC(=O)C(C)C)CCC2C3C[C@H](F)C4=CC(=O)C=CC4(C)[C@@]3(F)C(O)CC21C` (some centres not stated) had a Potency of 900. The molecule `CCCCC(=O)OCC(=O)[C@@]1(O)C(C)CC2C3CCC4=CC(=O)C=CC4(C)[C@@]3(F)C(O)CC21C` (some centres not stated) had a Potency of 26.

Source of the values: ChEMBL document CHEMBL1122453, “Structure-activity relationships in the antiinflammatory steroids: a pattern-recognition approach” (1983).
